Data: ChEMBL document CHEMBL1201862, “PubChem BioAssay data set” (2004)
Active and inactive are the calls of the source.

How the values were obtained:
Caspase-3 [1] = molecular target: T1, Caspase-3 (Homo sapiens, UniProt P42574); type: functional
T1 sequence (P42574 whole entry): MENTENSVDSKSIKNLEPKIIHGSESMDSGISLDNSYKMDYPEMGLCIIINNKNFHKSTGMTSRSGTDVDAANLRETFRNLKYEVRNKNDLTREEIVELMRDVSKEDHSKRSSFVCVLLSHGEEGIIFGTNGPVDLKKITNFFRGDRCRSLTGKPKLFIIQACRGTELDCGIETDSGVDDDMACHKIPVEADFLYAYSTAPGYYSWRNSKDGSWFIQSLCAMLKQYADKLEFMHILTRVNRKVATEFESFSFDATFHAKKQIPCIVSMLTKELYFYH

[2] = molecular target: T2, Sentrin-specific protease 7 (Homo sapiens, UniProt Q9BQF6); type: functional;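 further: Luminescence-based dose-response confirmation of ultra-high-throughput screening hits, measuring inhibition of SENP7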
T2 sequence (Q9BQF6 whole entry): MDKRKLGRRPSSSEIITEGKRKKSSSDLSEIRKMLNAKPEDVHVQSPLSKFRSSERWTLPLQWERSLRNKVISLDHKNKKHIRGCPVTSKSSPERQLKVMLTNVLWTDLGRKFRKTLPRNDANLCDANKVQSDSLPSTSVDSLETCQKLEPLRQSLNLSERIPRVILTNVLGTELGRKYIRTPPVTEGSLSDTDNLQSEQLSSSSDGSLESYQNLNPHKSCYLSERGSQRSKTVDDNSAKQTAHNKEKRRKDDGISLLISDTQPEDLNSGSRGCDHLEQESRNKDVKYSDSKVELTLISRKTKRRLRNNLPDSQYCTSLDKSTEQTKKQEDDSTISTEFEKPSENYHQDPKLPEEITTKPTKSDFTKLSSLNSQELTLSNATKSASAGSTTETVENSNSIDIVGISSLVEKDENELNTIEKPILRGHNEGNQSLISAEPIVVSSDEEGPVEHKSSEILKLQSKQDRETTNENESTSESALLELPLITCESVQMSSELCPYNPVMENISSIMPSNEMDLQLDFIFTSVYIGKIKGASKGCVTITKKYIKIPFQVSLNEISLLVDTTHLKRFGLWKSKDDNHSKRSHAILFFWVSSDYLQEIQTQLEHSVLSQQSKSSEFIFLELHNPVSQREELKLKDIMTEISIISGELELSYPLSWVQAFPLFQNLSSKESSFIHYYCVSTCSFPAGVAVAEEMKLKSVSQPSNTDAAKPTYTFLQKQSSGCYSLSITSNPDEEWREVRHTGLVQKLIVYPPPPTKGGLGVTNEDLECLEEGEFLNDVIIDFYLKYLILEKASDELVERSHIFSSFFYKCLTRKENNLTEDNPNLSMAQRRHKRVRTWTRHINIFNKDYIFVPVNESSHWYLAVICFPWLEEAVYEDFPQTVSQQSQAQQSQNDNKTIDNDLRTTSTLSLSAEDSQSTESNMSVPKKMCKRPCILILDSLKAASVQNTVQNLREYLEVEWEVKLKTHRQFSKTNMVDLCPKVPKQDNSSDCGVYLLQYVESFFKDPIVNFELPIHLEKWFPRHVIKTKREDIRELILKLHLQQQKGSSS

[3] = molecular target: T3, Sentrin-specific protease 8 (Homo sapiens, UniProt Q96LD8); type: functional
T3 sequence (Q96LD8 whole entry): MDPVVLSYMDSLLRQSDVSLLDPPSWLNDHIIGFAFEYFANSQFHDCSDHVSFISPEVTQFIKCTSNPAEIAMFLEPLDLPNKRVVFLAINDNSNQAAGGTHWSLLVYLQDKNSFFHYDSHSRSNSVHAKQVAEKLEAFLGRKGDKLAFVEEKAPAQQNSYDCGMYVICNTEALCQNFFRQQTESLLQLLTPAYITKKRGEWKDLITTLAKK

[4] = molecular target: T4, Sentrin-specific protease 6 (Homo sapiens, UniProt Q9GZR1); type: functional;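 further: Luminescence-based dose-response confirmatory assay of SENP6 inhibition, following up an ultra-high-throughput screen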
T4 sequence (Q9GZR1 whole entry): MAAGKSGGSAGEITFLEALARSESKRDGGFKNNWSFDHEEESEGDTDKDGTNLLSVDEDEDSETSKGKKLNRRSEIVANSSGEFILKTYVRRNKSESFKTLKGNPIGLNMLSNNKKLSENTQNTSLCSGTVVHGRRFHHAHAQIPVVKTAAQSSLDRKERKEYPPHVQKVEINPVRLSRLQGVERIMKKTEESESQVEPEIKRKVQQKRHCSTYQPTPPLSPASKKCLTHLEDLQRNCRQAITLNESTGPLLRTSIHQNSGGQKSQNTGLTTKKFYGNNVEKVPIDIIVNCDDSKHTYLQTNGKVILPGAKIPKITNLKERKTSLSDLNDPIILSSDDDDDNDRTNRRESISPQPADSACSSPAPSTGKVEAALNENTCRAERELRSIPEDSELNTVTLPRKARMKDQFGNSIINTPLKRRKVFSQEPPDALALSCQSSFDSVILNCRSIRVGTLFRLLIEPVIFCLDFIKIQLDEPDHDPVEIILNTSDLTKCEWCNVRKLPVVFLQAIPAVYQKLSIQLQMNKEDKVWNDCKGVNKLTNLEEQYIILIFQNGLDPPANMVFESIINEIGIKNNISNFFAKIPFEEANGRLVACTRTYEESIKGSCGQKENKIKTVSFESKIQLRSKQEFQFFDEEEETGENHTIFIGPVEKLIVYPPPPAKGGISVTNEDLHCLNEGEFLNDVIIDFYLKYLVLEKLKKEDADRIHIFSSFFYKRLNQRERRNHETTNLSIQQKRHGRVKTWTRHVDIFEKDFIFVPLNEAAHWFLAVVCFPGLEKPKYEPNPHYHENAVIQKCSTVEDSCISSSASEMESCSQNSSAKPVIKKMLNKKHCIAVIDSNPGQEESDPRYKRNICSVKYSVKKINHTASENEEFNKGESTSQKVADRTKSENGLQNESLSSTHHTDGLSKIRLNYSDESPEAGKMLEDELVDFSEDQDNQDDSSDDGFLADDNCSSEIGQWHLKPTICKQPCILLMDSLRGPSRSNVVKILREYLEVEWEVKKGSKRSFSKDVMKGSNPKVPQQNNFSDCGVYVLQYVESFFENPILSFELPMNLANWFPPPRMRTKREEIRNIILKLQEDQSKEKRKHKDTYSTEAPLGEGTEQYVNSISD

[5] = molecular target: Tyrosine-protein phosphatase non-receptor type 5 (Homo sapiens, UniProt P54829); assay: PTPN5 enzyme inhibition – biochemical, fluorescence intensity, uHTS hits, confirmation (AID 602372); type: functional; settings: read-out: IC50_Mean
[6] = molecular target: Dual specificity protein phosphatase 3 (Homo sapiens, UniProt P51452); assay: VHR phosphatase inhibition, dose response, selectivity assay for STEP inhibitor project, biochemical (AID 602374); type: functional; settings: read-out: IC50_Mean
[7] = molecular target: Tyrosine-protein phosphatase non-receptor type 11 (Homo sapiens, UniProt Q06124); assay: PTPN11 enzyme inhibitors – biochemical, selectivity assay for STEP inhibitor project, dose response (AID 602367); type: functional; settings: read-out: IC50_Mean
Caspase-3 [8] = molecular target: T1, Caspase-3; assay: Dose-response confirmation of uHTS inhibitor hits of Sentrin-Specific Protease 8 in a Caspase-3 Fluorescence assay.; type: functional
[9] = molecular target: T3, Sentrin-specific protease 8; type: functional; remark: listed apart in the source
[10] = molecular target: T3, Sentrin-specific protease 8; type: functional; remark: listed apart in the source
Cysteine protease ATG4B = molecular target: T5, Cysteine protease ATG4B (Homo sapiens, UniProt Q9Y4P1); type: functional;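 further: Fluorescence-based dose-response confirmation assay measuring inhibition of ATG4B activity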
T5 sequence (Q9Y4P1 whole entry): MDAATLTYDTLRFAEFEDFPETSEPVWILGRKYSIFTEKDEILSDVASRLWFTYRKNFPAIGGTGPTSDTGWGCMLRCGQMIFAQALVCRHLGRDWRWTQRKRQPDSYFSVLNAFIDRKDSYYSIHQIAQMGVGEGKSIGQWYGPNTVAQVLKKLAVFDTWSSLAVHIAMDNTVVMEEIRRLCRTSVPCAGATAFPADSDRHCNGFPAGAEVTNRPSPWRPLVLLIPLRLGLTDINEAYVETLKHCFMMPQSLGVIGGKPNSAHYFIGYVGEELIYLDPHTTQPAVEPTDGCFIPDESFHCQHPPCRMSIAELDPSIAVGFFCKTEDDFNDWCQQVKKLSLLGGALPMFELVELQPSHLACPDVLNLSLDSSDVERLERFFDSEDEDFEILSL

Phospholipase A2 = Phospholipase A2 (Homo sapiens, UniProt P04054); type: functional;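 further: confirmatory dose-response counterscreen on phospholipase A2, testing hits that came from an ultra-high-throughput screen for ATG4B inhibitors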
[11] = molecular target: Luciferin 4-monooxygenase (Photinus pyralis, UniProt P08659); assay: inhibition of purified Photinus pyralis luciferase – biochemical, luminescence, dose response (AID 1891)
[12] = Luminescence Cell-Based Dose Confirmation HTS to Identify Inhibitors of Platelet Dense Granule Release. [Related pubchem assays: 1663 (Primary HTS), 1678 (Summary of Project)]; type: functional
[13] = nonselective StAR promoter luciferase inhibitors – cell-based, luminescence, luciferase reporter, counter-screen for LRH-1 inverse agonist project, dose response (AID 651969); type: functional
[14] = molecular target: Nuclear receptor subfamily 5 group A member 2 (Homo sapiens, UniProt O00482); type: functional, cell-based;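 further: HEK293T cells transfected with LRH-1 and a StAR promoter luciferase reporter; potency for inhibitors that lower LRH-1 driven reporter light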
Steroidogenic factor 1 = Steroidogenic factor 1 (Homo sapiens, UniProt Q13285); assay: Counterscreen for inverse agonists of the liver receptor homolog-1 (LRH-1; NR5A2): Luminescence-based cell-based high throughput dose response assay to identify inverse agonists of the Steroidogenic Factor 1 Nuclear Receptor (SF1; NR5A1).; type: functional
Chain of Steroidogenic factor 1 (Q13285 whole entry): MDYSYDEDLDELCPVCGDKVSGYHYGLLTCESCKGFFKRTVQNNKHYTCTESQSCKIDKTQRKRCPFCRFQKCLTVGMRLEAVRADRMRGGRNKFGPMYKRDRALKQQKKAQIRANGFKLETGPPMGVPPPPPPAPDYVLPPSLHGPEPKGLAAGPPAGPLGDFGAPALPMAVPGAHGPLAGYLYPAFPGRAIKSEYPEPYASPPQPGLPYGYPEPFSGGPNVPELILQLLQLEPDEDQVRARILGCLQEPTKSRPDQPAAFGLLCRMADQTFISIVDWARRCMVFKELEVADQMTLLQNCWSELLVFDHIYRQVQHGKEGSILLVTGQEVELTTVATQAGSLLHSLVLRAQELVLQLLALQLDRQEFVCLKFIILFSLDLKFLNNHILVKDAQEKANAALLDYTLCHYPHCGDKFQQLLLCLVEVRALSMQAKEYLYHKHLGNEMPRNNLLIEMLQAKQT

Chain of Phospholipase A2 (P04054 whole entry): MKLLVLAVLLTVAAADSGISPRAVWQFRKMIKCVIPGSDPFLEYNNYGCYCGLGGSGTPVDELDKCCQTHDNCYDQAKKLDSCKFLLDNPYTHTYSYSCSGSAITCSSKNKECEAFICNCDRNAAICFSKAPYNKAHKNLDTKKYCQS
Chain of Tyrosine-protein phosphatase non-receptor type 11 (Q06124 whole entry): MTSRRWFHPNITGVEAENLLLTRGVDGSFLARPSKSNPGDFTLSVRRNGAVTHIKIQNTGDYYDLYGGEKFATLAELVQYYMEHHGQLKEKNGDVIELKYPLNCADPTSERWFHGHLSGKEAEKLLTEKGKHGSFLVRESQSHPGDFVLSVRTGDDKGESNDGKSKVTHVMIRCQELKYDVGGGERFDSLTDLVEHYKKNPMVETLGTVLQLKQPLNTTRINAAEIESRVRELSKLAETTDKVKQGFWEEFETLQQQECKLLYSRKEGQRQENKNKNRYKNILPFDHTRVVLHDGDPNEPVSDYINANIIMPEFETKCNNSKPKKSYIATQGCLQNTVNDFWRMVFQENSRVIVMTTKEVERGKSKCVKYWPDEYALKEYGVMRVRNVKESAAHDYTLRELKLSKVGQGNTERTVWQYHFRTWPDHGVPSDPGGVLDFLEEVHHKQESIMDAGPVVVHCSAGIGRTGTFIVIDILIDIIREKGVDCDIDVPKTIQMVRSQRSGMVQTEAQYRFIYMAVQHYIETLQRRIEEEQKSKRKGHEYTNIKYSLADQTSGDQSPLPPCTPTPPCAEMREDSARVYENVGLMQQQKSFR
Chain of Nuclear receptor subfamily 5 group A member 2 (O00482 whole entry): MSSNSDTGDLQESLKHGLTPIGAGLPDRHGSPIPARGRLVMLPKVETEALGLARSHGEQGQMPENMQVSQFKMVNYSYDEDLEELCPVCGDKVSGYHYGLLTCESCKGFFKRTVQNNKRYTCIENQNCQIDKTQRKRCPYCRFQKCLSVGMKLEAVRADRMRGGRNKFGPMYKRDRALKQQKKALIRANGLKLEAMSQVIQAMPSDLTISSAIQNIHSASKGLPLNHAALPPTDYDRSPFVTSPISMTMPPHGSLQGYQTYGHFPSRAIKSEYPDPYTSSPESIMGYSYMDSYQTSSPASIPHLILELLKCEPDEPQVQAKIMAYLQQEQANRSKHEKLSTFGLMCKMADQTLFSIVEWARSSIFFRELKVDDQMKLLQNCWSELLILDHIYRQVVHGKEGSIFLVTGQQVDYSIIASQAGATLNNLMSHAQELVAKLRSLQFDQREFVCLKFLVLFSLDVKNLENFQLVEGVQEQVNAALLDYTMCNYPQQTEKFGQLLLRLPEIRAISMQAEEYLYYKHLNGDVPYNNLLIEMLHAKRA
Chain of Dual specificity protein phosphatase 3 (P51452 whole entry): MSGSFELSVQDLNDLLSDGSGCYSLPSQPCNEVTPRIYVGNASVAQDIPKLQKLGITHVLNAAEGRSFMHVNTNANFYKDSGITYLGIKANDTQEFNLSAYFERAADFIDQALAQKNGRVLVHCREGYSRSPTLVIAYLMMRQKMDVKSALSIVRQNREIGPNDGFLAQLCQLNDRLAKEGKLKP
Chain of Luciferin 4-monooxygenase (P08659 whole entry): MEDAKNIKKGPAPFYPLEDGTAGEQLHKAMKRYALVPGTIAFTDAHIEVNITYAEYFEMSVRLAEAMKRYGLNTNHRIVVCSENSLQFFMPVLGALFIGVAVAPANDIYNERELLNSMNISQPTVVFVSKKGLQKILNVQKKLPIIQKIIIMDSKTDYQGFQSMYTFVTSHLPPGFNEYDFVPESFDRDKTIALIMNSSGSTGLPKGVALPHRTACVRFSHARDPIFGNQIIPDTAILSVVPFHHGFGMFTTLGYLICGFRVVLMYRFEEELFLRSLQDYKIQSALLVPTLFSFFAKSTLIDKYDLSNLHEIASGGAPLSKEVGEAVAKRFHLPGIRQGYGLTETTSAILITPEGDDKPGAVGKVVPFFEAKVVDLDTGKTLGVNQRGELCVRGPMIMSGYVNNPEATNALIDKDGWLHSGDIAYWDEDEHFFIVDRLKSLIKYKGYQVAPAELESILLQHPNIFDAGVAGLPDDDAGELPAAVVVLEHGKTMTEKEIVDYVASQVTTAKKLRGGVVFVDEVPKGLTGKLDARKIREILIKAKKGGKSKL
Chain of Tyrosine-protein phosphatase non-receptor type 5 (P54829 whole entry): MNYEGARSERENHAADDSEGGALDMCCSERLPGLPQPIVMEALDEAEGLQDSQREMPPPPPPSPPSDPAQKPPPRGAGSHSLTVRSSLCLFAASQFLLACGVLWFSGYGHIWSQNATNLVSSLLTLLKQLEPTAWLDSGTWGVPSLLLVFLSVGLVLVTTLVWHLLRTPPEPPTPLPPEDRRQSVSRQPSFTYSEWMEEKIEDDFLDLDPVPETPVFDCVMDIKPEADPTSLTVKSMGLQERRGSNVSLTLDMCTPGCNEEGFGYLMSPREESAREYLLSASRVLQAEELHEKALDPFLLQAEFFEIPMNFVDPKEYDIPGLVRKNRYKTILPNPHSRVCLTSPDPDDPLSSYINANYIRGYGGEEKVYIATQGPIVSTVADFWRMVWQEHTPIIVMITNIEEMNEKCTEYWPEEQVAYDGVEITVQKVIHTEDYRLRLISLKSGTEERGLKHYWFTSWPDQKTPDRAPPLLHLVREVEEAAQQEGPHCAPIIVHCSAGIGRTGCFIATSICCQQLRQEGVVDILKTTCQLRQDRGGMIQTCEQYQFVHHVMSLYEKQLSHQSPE

## CCOc1ccc2nc(NC(=O)CSc3cnn[nH]3)sc2c1
Caspase-3 [1]
  IC50: 16.3 µM (active)
[2]
  IC50: 11.7 µM (active)
[3]
  IC50: 44.1 µM (active)
[4]
  IC50: 32.8 µM (active)

## COCCCN(C(S)=Nc1c(C)cc(C)cc1C)C(C)c1ccccn1 (centres undefined)
[5]
  IC50: > 80 µM (inactive)
[6]
  IC50: 4.94 µM (active)
[7]
  IC50: 15.1 µM (active)

## O=C1CC(N2CCOCC2)=NN1c1ccc([N+](=O)[O-])cc1
Caspase-3 [8]
  IC50: 100 µM (inactive)
[9]
  IC50: 24.6 µM (active)
[10]
  IC50: 11.7 µM (active)

## Cc1cccc(OCC(=O)Nc2ccccc2-c2ccccc2)c1
Cysteine protease ATG4B
  IC50: 11.5 µM (active)
Phospholipase A2
  IC50: 11.9 µM (active)
[11]
  EC50: 73.8 µM (active)
[12]
  EC50: > 112 µM (not active)

## CC/C=C\C/C=C\C/C=C\CCCCCCCC(=O)O [LINOLENIC ACID]
Cysteine protease ATG4B
  IC50: 15.3 µM (active)
Phospholipase A2
  IC50: 22.3 µM (inactive)

## Cc1c(NC(=S)NC(=O)c2ccc(Cl)cc2)c(=O)n(-c2ccccc2)n1C
[13]
  IC50: 35.9 µM (inactive)
[14]
  IC50: 12 µM (inactive)
Steroidogenic factor 1
  IC50: 35.9 µM (inactive)
